Results from PubChem BioAssay AID1963873 (Molecular Pharmacology Branch, DTP, NCI, 2024).
pIC50: −log10 of the molar value.

Tested on: 276233-004-R-J1-PDC KRAS spheroids with HUVEC/MSC, viability
Test: Anticancer human tumor 276233-004-R-J1-PDC patient-derived colon adenocarcinoma cell line growth inhibition [KRAS2]
Conditions: for pIC50: curve of first compound; for viability, T/C: stronger effect = lower value
Procedure, shortened: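 KRAS-mutant tumor cells were grown as spheroids with HUVEC endothelial cells and human MSCs as stroma. Targeted agents were tested alone and with KRAS pathway inhibitors. Doses started at or near clinical Cmax, or 10 microM, descending half-log.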

[1] = second compound 0.1 µM, first compound 0.0316 µM
[2] = second compound 0.1 µM, first compound 0.1 µM
[3] = second compound 0.1 µM, first compound 0.316 µM
[4] = second compound 0.1 µM, first compound 1 µM
[5] = second compound 0.1 µM, first compound 3.16 µM
[6] = second compound 0.1 µM, first compound 10 µM
[7] = second compound 0.316 µM, first compound 0.0316 µM
[8] = second compound 0.316 µM, first compound 0.1 µM
[9] = second compound 0.316 µM, first compound 0.316 µM
[10] = second compound 0.316 µM, first compound 1 µM
[11] = second compound 0.316 µM, first compound 3.16 µM
[12] = second compound 0.316 µM, first compound 10 µM
[13] = second compound 1 µM, first compound 0.0316 µM
[14] = second compound 1 µM, first compound 0.1 µM
[15] = second compound 1 µM, first compound 0.316 µM
[16] = second compound 1 µM, first compound 1 µM
[17] = second compound 1 µM, first compound 3.16 µM
[18] = second compound 1 µM, first compound 10 µM
[19] = second compound 3.16 µM, first compound 0.0316 µM
[20] = second compound 3.16 µM, first compound 0.1 µM
[21] = second compound 3.16 µM, first compound 0.316 µM
[22] = second compound 3.16 µM, first compound 1 µM
[23] = second compound 3.16 µM, first compound 3.16 µM
[24] = second compound 3.16 µM, first compound 10 µM
[25] = second compound 10 µM, first compound 0.0316 µM
[26] = second compound 10 µM, first compound 0.1 µM
[27] = second compound 10 µM, first compound 0.316 µM
[28] = second compound 10 µM, first compound 1 µM
[29] = second compound 10 µM, first compound 3.16 µM
[30] = second compound 10 µM, first compound 10 µM
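Also: cells exposed to agents for seven days before viability read.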
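For viability, T/C in this document: 100% = DMSO vehicle control wells and lower values mean fewer viable cells.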

Row | Compound | pIC50 (second compound 0.1 µM) | pIC50 (second compound 0.316 µM) | pIC50 (second compound 1 µM) | pIC50 (second compound 3.16 µM) | pIC50 (second compound 10 µM) | viability, T/C [1] | viability, T/C [2] | viability, T/C [3] | viability, T/C [4] | viability, T/C [5] | viability, T/C [6] | viability, T/C [7] | viability, T/C [8] | viability, T/C [9] | viability, T/C [10] | viability, T/C [11] | viability, T/C [12] | viability, T/C [13] | viability, T/C [14] | viability, T/C [15] | other results
1 | CC1OCC2(CCN(c3cnc(Sc4ccnc(N)c4Cl)c(N)n3)CC2)C1N (stereo not given) + COc1cc2nc(C)nc(NC(C)c3cc(N)cc(C(F)(F)F)c3)c2cc1OC1CCOC1 | < 5.00 | < 5.00 | < 5.00 | 5.28 | 7.39 | 93.6% | 100% | 70.5% | 78% | 62.9% | 51.7% | 109% | 79% | 78.5% | 62.7% | 61.8% | 57.2% | 91.5% | 86.9% | 81.4% | viability, T/C [16]: 80.4%; viability, T/C [17]: 55.1%; viability, T/C [18]: 50.8%; viability, T/C [19]: 85.8%; viability, T/C [20]: 77.8%; viability, T/C [21]: 71.8%; viability, T/C [22]: 70%; viability, T/C [23]: 54%; viability, T/C [24]: 42.7%; viability, T/C [25]: 52.4%; viability, T/C [26]: 44.1%; viability, T/C [27]: 34.4%; viability, T/C [28]: 33.9%; viability, T/C [29]: 24.2%; viability, T/C [30]: 18.7%
2 | Cn1nccc1Nc1nccc(-c2cc3c(s2)C(C)(C)N(CCN2CCOCC2)C3=O)n1 + COc1cc2nc(C)nc(NC(C)c3cc(N)cc(C(F)(F)F)c3)c2cc1OC1CCOC1 | 5.76 | 5.70 | 5.73 | 5.57 | > 7.50 | 87.1% | 97.3% | 76.2% | 59.4% | 40.8% | 33.8% | 89.2% | 91.4% | 79.3% | 60% | 42.9% | 41% | 99.7% | 96% | 75.5% | viability, T/C [16]: 60.5%; viability, T/C [17]: 35.9%; viability, T/C [18]: 48.4%; viability, T/C [19]: 107%; viability, T/C [20]: 74%; viability, T/C [21]: 77.9%; viability, T/C [22]: 56.1%; viability, T/C [23]: 42.4%; viability, T/C [24]: 47.2%; viability, T/C [25]: 39.3%; viability, T/C [26]: 41.3%; viability, T/C [27]: 34.7%; viability, T/C [28]: 27.6%; viability, T/C [29]: 15.2%; viability, T/C [30]: 4.25%
